Results on 11 molecules are retold here after patent US20020049190A1, “Pharmaceutical compositions comprising metal complexes” (priority 1999, published 2002).

A short description of experiment [1]: In vitro test of NO uptake: manometer pressure and IR spectrum of freeze-dried product. Type of experiment: binding. As to conditions: aqueous solution under argon, 20° C.-24° C., NO gas in headspace, one hour. As to the method: The resulting solution was placed in a three-necked pear-shaped flask and stirred by a magnetic stirrer at constant speed of 1000 rpm, at a constant temperature in the range 20° C.-24° C. A manometer was attached to the flask, and purified, dried nitric oxide gas (known volume in the range 3-5cm^3) was introduced via a septum, using a gas syringe, at atmospheric pressure into the headspace above the reaction solution. The pressure within the flask was recorded periodically over a period of one hour.
A control experiment was carried out according to the above but without any complex present.
On completion of each in vitro test, the reaction solution was freeze-dried. An infrared spectrum of the freeze-dried product provided information on metal-NO bond formation.

Experiment [2] has as its system murine (RAW264) macrophage cell lines. In words: In vitro cell culture test: available nitric oxide (nitrite+nitrate) in activated macrophages. As to conditions: LPS + interferon γ activated RAW264, 18 hours. Type of experiment: cell-based. As to the method:
Concurrently, test compounds made up in MEM were added at non-cytotoxic concentrations. Control cells as above, which were activated to produce nitric oxide as above, but to which no test compound was added, were used as a measure of the amouint of nitric oxide produced by the cells during the tests. (See […]. Powell, O. J. Vaughan, G. R. Henderson, B. A. Murrer, […]. Bisland, […], Ruthenium complexes as nitric oxide scavengers: a potential therapeutic approach to nitric oxide-mediated diseases, Br. J Pharmacol., 1997, 122, 1441-1449.) Background nitric oxide was assessed by measurement of nitrate and nitrite in cells which were not activated. Cell viability was confirmed by Trypan blue dye exclusion at the end of the incubation period. Nitric oxide was determined by measurement of nitrate and nitrite in the cell supernatant. These anions are the stable end-products of reactions of NO in solution. Such reactions may or may not be catalysed in biological systems. The sum of nitrite and nitrate concentrations gives the total NO production. […] Nitrate was determined by reducing nitrate to nitrite with a bacterial nitrate reductase from Pseudomonas oleovorans and then measuring nitrite with the Griess reaction. In the absence of test compounds nitrite concentration plus nitrate concentration is equal to total nitric oxide production. The effect of test compounds on available nitric oxide (measured as nitrite+nitrate) was determined. The reduction in available nitric oxide compared with the control level may be taken as an indication of the degree of binding of NO by the test compounds.

The next experiment deals with rat tail artery. In words: Ex vivo test: perfused pre-contracted rat tail artery, vasoconstriction. As to conditions: for Vasoconstriction on application of test compound: 10 μM and 100 μM (Example 26 also 1000 μM); for % Vasoconstriction: artery pre-contracted with 6.5 μM phenylephrine; for Reversibility of the vasoconstriction: washout with Krebs solution. The text has this:
In the ex vivo tests, segments of rat tail artery (0.8-1.5 cm) were dissected free from normotensive adult Wistar rats. The arteries were internally perfused with Krebs solution (mM: NaCl 118, KCl 4.7, NaHCO3 25, NaH2PO4 1.15, CaCl22.5, MgCl2 1.1, glucose 5.6 and gassed with 95% O2/5% CO2 to maintain a pH of 7.4) in a constant flow perfusion apparatus. A differential pressure transducer located upstream of the vessel detected changes in back pressure. The rat tail artery preparation was pre-contracted with 6.5 μM phenylephrine to give a physiologically normal pressure of 100-120 mm Hg. The pre-contracted vessels were then perfused with the test compound. The arteries were perfused with Krebs solution between applications of test compound to wash out the test compound.
Pressure changes in the system served to indicate artery vasoconstriction. The vasoconstriction is a direct result of the removal of endogenous nitric oxide (edrf) from the endothelial cells of the rat tail artery.

Experiment [3] relates to rat P22 carcinosarcoma grown in BD-IX rats. Nature of the experiment: Tumour growth, vascularisation and plasma nitrite/nitrate in rats bearing P22 carcinosarcoma. The settings on record: for Nitrite/nitrate levels at Day 28 / Tumour vascularisation (MVD), Mean Chalkey score: 50 mg/kg daily i.p. Day 10-Day 28; for Nitrite/nitrate levels at Day 28: Griess assay, untreated control 7.75; for Tumour vascularisation (MVD), Mean Chalkey score: anti-CD31 immunostaining, untreated control 13.0; for Tumour growth: 50 mg/kg daily intraperitoneal, Day 10-Day 28, male BD-IX rats. Type of experiment: in vivo. How it is done:
The effect of AMD6245 (Example 113) and AMD6221 (Example 8) on tumour growth was assessed using the rat P22 carcinosarcoma grown in BD-IX rats (Kennovin et al., in Biology of Nitric Oxide, Vol. 4, (S. Moncada, M. Feelisch, R. Busse, and A. E. Higgs, eds.), Portland Press, London, 1994, pp. 473-479). The tumour was implanted subcutaneously on the dorsal surface of male BD-IX rats on Day 0. Tumour growth was measured daily using calipers and tumour volume calculated from the equation […] where X=the short tumour axis and Y=the long tumour axis. Tumours were measurable by Day 10. AMD6245 and AMD6221 were administered daily by intraperitoneal injection at a dose of 50 mg/kg from Day 10-Day 28. Tumour vascularisation (Microvascular Density or MVD) was measured by Chalkley point counting after immunostaining with anti-CD31 antibody (Vermeulen et al., Eur. J. Cancer, 32A, 2474-2484, (1996)). Nitrite/nitrate was measured by the Griess assay (see Table 4). These anions are the stable end products of NO in solution. Nitrate was first reduced to nitrite by […]. The sum of nitrite and nitrate gives the total NO production.

As for `O.O.O=C([O-])CN(CCN(CC(=O)[O-])CC(=O)O)CC(=O)[O-].[Cl-].[K+].[Ru+3]` [Example 1, K[Ru(hedta)Cl]2H2O], in experiment [1], the “Pressure decrease indicating binding of NO to the metal compound” value is listed as “pressure decrease indicated binding of NO”. The figures for the “% Decrease of Available Nitric Oxide” value in experiment [2] (25 μM test compound), in experiment [2] (50 μM test compound) and in experiment [2] (100 μM test compound) were 12%, 23% and 75%, respectively.

Take `CC(=O)C=C(C)[O-].O=C([O-])CN(CCN(CC(=O)O)CC(=O)O)CC(=O)[O-].[Ru+3]` [Example 2, [Ru(H2edta)(acac)]]: the “Vasoconstriction on application of test compound” value (shortened to “Vasoconstriction on application”) with rat tail artery is on record as “dose-dependent vasoconstriction”. Besides, the “% Vasoconstriction” value was determined as 20% with rat tail artery (10 μM) and 69% in the experiment on rat tail artery (100 μM). Further, the “Reversibility of the vasoconstriction” value with rat tail artery was “reversible by washout”. Also, the “% Decrease of Available Nitric Oxide” value in experiment [2] (100 μM test compound) was 82%.

As for `O.O=C([O-])CN(CCO)CCN(CC(=O)[O-])CC(=O)[O-].[Cl-].[K+].[Ru+3]` [Example 3, K[Ru(hedtra)Cl]H2O], the “Pressure decrease indicating binding of NO to the metal compound” value in experiment [1] is given as “pressure decrease indicated binding of NO”. In addition, in the experiment with rat tail artery, the “Vasoconstriction on application” value is “dose-dependent vasoconstriction” and the “Reversibility of the vasoconstriction” value is on record as “reversible by washout”. Moreover, the “% Vasoconstriction” value in the experiment with rat tail artery (10 μM) worked out at 17%. Further, in the experiment on rat tail artery (100 μM), the “% Vasoconstriction” value is given as 59%. The “% Decrease of Available Nitric Oxide” value in experiment [2] (100 μM test compound) is 42%.

Take `O.O=C([O-])c1cccc(C(=O)[O-])n1.O=C([O-])c1cccc(C(=O)[O-])n1.[K+].[Ru+3]` [Example 4, K[Ru(dipic)2]H2O]: in experiment [1], the “Pressure decrease indicating binding of NO to the metal compound” value is “pressure decrease indicated binding of NO”.

`O.O=C([O-])CN(CCN(CC(=O)O)CC(=O)O)CC(=O)[O-].[Cl-].[Cl-].[K+].[Ru+3]` [Example 6, K[Ru(H2edta)Cl2]H2O]: the “Pressure decrease indicating binding of NO to the metal compound” value in experiment [1] is “pressure decrease indicated binding of NO”. Further, the “% Decrease of Available Nitric Oxide” value in experiment [2] (100 μM test compound) is 77%.

Take `CC(=O)[O-].CC(=O)[O-].CC(=O)[O-].CC(=O)[O-].[Cl-].[Ru+3].[Ru+3]` [Example 14, [Ru2(OAc)4]Cl]: in the experiment with rat tail artery, the “Vasoconstriction on application” value is “dose-dependent vasoconstriction” and the “Reversibility of the vasoconstriction” value is reported as “reversible by washout”. For the same molecule, the “% Vasoconstriction” value with rat tail artery (10 μM) was determined as 11%. For the same molecule, the “% Vasoconstriction” value with rat tail artery (100 μM) is 40%. Moreover, the “% Decrease of Available Nitric Oxide” value in experiment [2] (100 μM test compound) is reported as 47%.

As for `Cc1occc(=O)c1[O][Ru]([O]c1c(C)occc1=O)[O]c1c(C)occc1=O` [Example 26, [Ru(maltol)3]], in the experiment with rat tail artery, the “Vasoconstriction on application” value is given as “dose-dependent vasoconstriction”. In addition, the “% Vasoconstriction” value in the experiment on rat tail artery (10 μM) is given as 10%; in the experiment on rat tail artery (100 μM), 18%; in the experiment on rat tail artery (1000 μM), 25%. Moreover, the “Reversibility of the vasoconstriction” value in the experiment on rat tail artery was “reversible by washout”. For the same molecule, the “% Decrease of Available Nitric Oxide” value in experiment [2] (100 μM test compound) came out at 71%.

K[Ru(H2dtpa)Cl]H2O [Example 8]: in experiment [3], the “Nitrite/nitrate levels at Day 28” value was determined as 5.09 μmoles/litre plasma; the “Tumour vascularisation (MVD), Mean Chalkey score” value amounted to 5.3; the Tumour growth result is recorded as “inhibited the growth”. For the same molecule, the “Pressure decrease indicating binding of NO to the metal compound” value in experiment [1] is “pressure decrease indicated binding of NO”.

Turning to K[Ru(hnta)2]½H2O [Example 7], the “Pressure decrease indicating binding of NO to the metal compound” value in experiment [1] is “pressure decrease indicated binding of NO”.

As for [Ru(Hedta)]H2O [AMD6245], in experiment [3], the “Nitrite/nitrate levels at Day 28” value is on record as 3.88 μmoles/litre plasma; the “Tumour vascularisation (MVD), Mean Chalkey score” value was 3.0; the Tumour growth entry is on record as “inhibited the growth”.

Turning to [Ru(NH3)5Cl]Cl2 [Example 15], in the experiment on rat tail artery, the “Vasoconstriction on application” value is given as “dose-dependent vasoconstriction” and the “Reversibility of the vasoconstriction” value is given as “reversible by washout”. Besides, in the experiment on rat tail artery (10 μM), the “% Vasoconstriction” value was 77%. In the experiment with rat tail artery (100 μM), the “% Vasoconstriction” value is recorded as 86%. Further, the “% Decrease of Available Nitric Oxide” value in experiment [2] (100 μM test compound) is given as 86%.
